Assay results taken from patent US9492456B2, “Valomaciclovir polymorphs” (EPIPHANY BIOSCIENCES, INC., priority 2007, dated 2016).
Entries after “also recorded” stand apart in the source; their conditions may differ. Like-named read-outs stand apart in the source and are kept apart here. Each block holds one molecule with its values, some of them ahead of it.

Key:
[1] = Powder flow (Carr Index, tapped compressibility); format: physicochemical
From the text: The flow characteristics of the solid products of this invention can be measured by the Carr index [Pharmaceutical Preformulation and Formulation, A practical guide from candidate selection to commercial dosage form, Mark Gibson, Ed.; Interpharm Press, 2002; pages 386-7.) By subjecting a powder to mechanical forces, resistance to powder flow can be observed. The increase in bulk density (compressibility) of a powder subjected to tapping can be used to determine the Carr index. In some embodiments, the Polymorph A enriched valomaciclovir has a Carr index value range from about 35 to about 50.
By subjecting a powder to mechanical forces, resistance to powder flow can be observed. The increase in bulk density (compressibility) of a powder subjected to tapping can be used to determine the Carr index. This index was measured for each of the four recrystallized batches and tabulated below.
Powder flow characteristics were compared using the Carr Index. By subjecting a powder to mechanical forces, resistance to powder flow can be observed. The increase in bulk density (compressibility) of a powder subjected to tapping can be used to determine the Carr index. A summary of Carr indices and qualitative flow properties are summarized below in Table 13.
Batches were sieved to <1000 microns before testing. This was necessary to remove any clumps in the samples.

[2] = Particle and agglomerate size by polarized light microscopy in silicone oil; format: physicochemical
From the text: The particle size of the solid product of this invention can be evaluated in silicone oil using polarized light microscopy. In some embodiments, Polymorph A enriched valomaciclovir has particle size range from about 10 to about 300 microns as measured using this system.
Polarized light microscopy was used to evaluate the particle size range of the recrystallized samples in silicone oil. The particle size range is reported in Table 4 along with the powder flow data.
A Zeiss Universal microscope configured with a polarized visible light source and polarizable analyzer was used to evaluate the optical properties of the samples. Specimens were typically mounted on a microscope slide with a drop of immersion oil and a cover glass. Magnification was typically 250×. Observations of particle/crystal size and shape were recorded. The presence of birefringence was also noted.

[3] = Powder flow (Carr Index, tapped compressibility); format: physicochemical; settings: visual observation
[4] = Polymorph screening study, summary of forms; format: physicochemical; settings: Table 12 summary
Protocol: A polymorph screening study was performed on valomaciclovir active pharmaceutical ingredient. The screen entailed recrystallizing the material using solvent recrystallization, recrystallization from the melt, annealing experiments, and slurry experiments. Overall, the API was recrystallized under more than 100 different crystal growth conditions and analyzed using powder x-ray diffraction. A chemometric treatment of the x-ray data was used to categorize the samples into different groups. These groups were studied using thermal, optical, spectroscopic and other tools to elucidate which groups represent unique solid state forms of the API.
The raw diffraction data generated from the polymorph screening experiments (solvent recrystallization, recrystallization from the melt, annealing, non-competitive slurries) were initially categorized into 8 different groups using a chemometric treatment. Analyses of these different groups were used to perform additional experiments (e.g. DSC, TGA, HSM, NMR, etc.) to refine the groups identified by the chemometric treatment.

[5] = Competitive and non-competitive slurry experiments in ethanol (energy relationships); format: physicochemical
Protocol: Competitive slurry experiments were performed using mixtures (normally 50:50) of the forms in ethanol and agitating at approximately 25° C. for several days. Noncompetitive slurries were performed by agitating excess solids of one form in ethanol at room temperature. […] In both the competitive and noncompetitive slurry experiments, the solids were vacuum filtered and analyzed by XRD. The XRD patterns are used to determine if the undissolved solids had transformed into a different polymorphic form. In one case, a different polymorphic form emerged that was different than either of the two forms initially present. This indicates both original forms were metastable to the final form isolated.

Epstein-Barr virus (EBV) = settings: cited from earlier work
HSV-2 = settings: cited from earlier work
HSV-I = settings: cited from earlier work
[6] = tested on: human herpesvirus-6 (HHV-6); settings: cited from earlier work
[7] = tested on: human varicella zoster virus (VZV); settings: cited from earlier work
[8] = Water solubility / lipophilicity of the API; format: physicochemical
zoster = settings: suspension, 250, 500 and 750 mg BID for 7 days, zoster patients, acyclovir control; cited from earlier work
[9] = human, multiple dosing, total daily doses of up to 6.0 g; cited from earlier work
[10] = Table 2, earlier valomaciclovir batches, sieved to <1000 microns
[11] = Table 2, earlier batches, no unit in table (microns)

SMILES: CCCCCCCCCCCCCCCCCC(=O)OC[C@@H](CCn1cnc2c(=O)[nH]c(N)nc21)COC(=O)[C@@H](N)C(C)C [Batch 12-03-018]
Carr Index [1, 10]: 48
Agglomerate Size [2, 11]: 100
Typical Particle Size Range [2, 11]: 5-40

SMILES: CCCCCCCCCCCCCCCCCC(=O)OCC(CCOC(=O)C(N)C(C)C)Cn1cnc2c(=O)[nH]c(N)nc21 (stereo not shown) [Batch 52772-2-7]
Carr Index ([1]; Table 4, recrystallized samples (ethanol or SDA 3C), listed as 52772-2-7): 53
Typical Particle Size Range ([2]; Table 4, recrystallized samples, in silicone oil, no unit in table, listed as 52772-2-7): 20-50

SMILES: CCCCCCCCCCCCCCCCCC(=O)OCC(CCOC(=O)C(N)C(C)C)Cn1cnc2c(=O)[nH]c(N)nc21 (stereo not shown) [Batch 52772-3-17]
Carr Index ([1]; Table 4, recrystallized samples (ethanol or SDA 3C), listed as 52772-3-17): 56
Typical Particle Size Range ([2]; Table 4, recrystallized samples, in silicone oil, no unit in table, listed as 52772-3-17): 10-30

SMILES: CCCCCCCCCCCCCCCCCC(=O)OC[C@H](CCOC(=O)[C@@H](N)C(C)C)Cn1cnc2c(=O)[nH]c(N)nc21 [Batch 52772-5-8]
Carr Index ([1]; Table 4, recrystallized samples (ethanol or SDA 3C), listed as 52772-5-8): 44
Typical Particle Size Range ([2]; Table 4, recrystallized samples, in silicone oil, no unit in table, listed as 52772-5-8): 35-50

SMILES: CCCCCCCCCCCCCCCCCC(=O)OC[C@H](CCOC(=O)[C@@H](N)C(C)C)Cn1cnc2c(=O)[nH]c(N)nc21 [Batch 52772-8-10]
Carr Index ([1]; Table 4, recrystallized samples (ethanol or SDA 3C), listed as 52772-8-10): 38
Typical Particle Size Range ([2]; Table 4, recrystallized samples, in silicone oil, no unit in table, listed as 52772-8-10): 150-300

SMILES: CCCCCCCCCCCCCCCCCC(=O)OC[C@H](CCOC(=O)[C@@H](N)C(C)C)Cn1cnc2c(=O)[nH]c(N)nc21 [Batch 146756]
Flowability (in words) [1]: extremely poor flowability
Carr Index [1, 10]: 64
Agglomerate Size [2, 11]: 200
Typical Particle Size Range [2, 11]: 5-20
Handleability and powder flow [3]: poor handleability and poor powder flow

SMILES: CCCCCCCCCCCCCCCCCC(=O)OC[C@@H](CCn1cnc2c(=O)[nH]c(N)nc21)COC(=O)[C@@H](N)C(C)C [Form A]
Description (stability class of the polymorphic form) [4]: Thermodynamically
Flowability (in words) ([1]; listed as Polymorph A): more flowable
Flowability (in words) ([1]; listed as Polymorph A enriched valomaciclovir): good flow characteristics
Thermodynamic stability (in words) ([5]; from slurry experiments and thermal behaviour): most stable polymorphic form; also recorded: more thermodynamically stable than the B polymorphs; also recorded: thermodynamically stable form
Thermodynamic stability (in words) ([5]; from slurry experiments and thermal behaviour, listed as Polymorph A): thermodynamically the most stable polymorph of valomaciclovir
Relative solubility of polymorphic forms (in words) ([5]; inferred from slurry conversion / enantiotropic relationship): less soluble

SMILES: Nc1nc2c(ncn2C[C@H](CO)CCO)c(=O)[nH]1 [Form H2G]
Antiviral activity (in words) (Epstein-Barr virus (EBV)): potent activity
Antiviral activity (in words) (HSV-2): potent activity
Antiviral activity (in words) (HSV-I): potent activity
Antiviral activity (in words) [6]: potent activity
Antiviral activity (in words) [7]: potent activity

SMILES: CCCCCCCCCCCCCCCCCC(=O)OCC(CCn1cnc2c(=O)[nH]c(N)nc21)COC(=O)C(N)C(C)C (stereo not shown) [Form H]
Relative solubility of polymorphic forms (in words) [5]: more soluble
Thermodynamic stability (in words) [5]: less thermodynamically stable than the B polymorphs

SMILES: CCCCCCCCCCCCCCCCCC(=O)OC[C@H](CCOC(=O)[C@@H](N)C(C)C)Cn1cnc2c(=O)[nH]c(N)nc21 [valomaciclovir, L-valine, (3R)-3-[(2-amino-1,6-dihydro-6-oxo-9H-purin-9-yl)methyl]-4-[(1-oxooctadecyl)oxy]butyl ester]
Lipophilicity (in words) [8]: fairly lipophilic
Solubility in water (in words) ([8]; water): practically insoluble in water
Zoster lesion healing (zoster): proof-of-concept for zoster lesion healing
Safety and tolerability [9]: safe and well tolerated

The remaining lines, values ahead:

Description (stability class of the polymorphic form) [4]: Metastable Polymorph
SMILES: CCCCCCCCCCCCCCCCCC(=O)OCC(CCn1cnc2c(=O)[nH]c(N)nc21)COC(=O)C(N)C(C)C (stereo not shown) [Form B1]

Description (stability class of the polymorphic form) [4]: Metastable Polymorph
SMILES: CCCCCCCCCCCCCCCCCC(=O)OCC(CCOC(=O)C(N)C(C)C)Cn1cnc2c(=O)[nH]c(N)nc21 (stereo not shown) [Form B2]

Description (stability class of the polymorphic form) [4]: Metastable Polymorph
SMILES: CCCCCCCCCCCCCCCCCC(=O)OCC(CCn1cnc2c(=O)[nH]c(N)nc21)COC(=O)C(N)C(C)C (stereo not shown) [Form B3]

Description (stability class of the polymorphic form) [4]: Metastable Polymorph
SMILES: CCCCCCCCCCCCCCCCCC(=O)OCC(CCn1cnc2c(=O)[nH]c(N)nc21)COC(=O)C(N)C(C)C (stereo not shown) [Form B4]
